Laboratory results published in patent US6872562B2, “Herbicide resistant dinitrogen fixing bacteria and method of use” (priority 2001, dated 2005).

Columns and labels:
[1] = system: glyphosate resistant soybean cultivar DK5961RR inoculated with B. japonicum (USDA 110); assay: Seed-imbibed glyphosate: nodulation, growth chamber experiment; assay type: in vivo; settings: glyphosate concentrations greater than 12 mM
Experimental: Pots 15-cm in diameter, with a total volume of 1.3 L were filled with a peat based potting mix that was saturated with a nitrogen-free nutrient solution. Six seeds from a particular glyphosate-concentration seed soak were planted in each pot and 1 ml of B. japonicum (USDA 110) containing approximately 4.24×10^6 cells was applied evenly across the surface and washed into the potting mix with 250 ml of minus N nutrients. Plants were thinned to one per pot after emergence. Day and night temperatures were approximately 30 and 24 C, respectively, and natural illumination was supplemented with 1000 W metal-halide lamps for a day length of 16 hours. […] Root nodules were scanned and images were used to determine nodule number and size as influenced by glyphosate treatment. The […] was repeated in a controlled environmental growth chamber with six replications. Growth chamber temperature was a constant 25 C and light and dark periods were 16 and 8 hours, respectively. Plants were harvested at 15 days after planting and sectioned as previously described (Example 1).

[2] = system: GR soybean cultivar Terral TV5866RR; assay: Greenhouse Example 1: biomass, nitrogen content and nodules of TV5866RR after postemergence glyphosate; assay type: in vivo, soybean (Glycine max); settings: for Nodules per plant Run 1 / Individual nodule mass Run 2 / Nodules per plant Run 2 / Individual nodule mass Run 1: Harvest 2 (40 DAE)
Experimental: Seeds were planted in 15-cm pots with an approximate soil volume of 1.9 L. The potting medium was a nitrogen-free peat/vermiculite/perlite mixture (LB2, Sun Gro Horticulture Inc., 1830 Knob Hill, Garland, Tex. 75403). Soil was saturated with deionized (DI) water and then 500 mL of full-strength, nitrogen-free nutrient solution (de Silva et al., 1996) was added prior to planting. Pots were inoculated with approximately 1×10^7 cells of B. japonicum (USDA 110) at sowing. After emergence, plants were thinned to one per pot and reinoculated with B. japonicum. Plants were well watered by adding deionized (DI) water daily, and each pot received 250 mL of nitrogen-free nutrients weekly after emergence. Day and night temperatures were approximately 30 and 24 C, respectively, and natural illumination was supplemented with 1000 W metal-halide lamps for a day length of 16 h.
Each application was as a postemergence over-the-top spray to soybean plants using a moving-nozzle spray chamber. At each harvest, plants were separated into shoots, roots, and nodules. Nodules were photocopied, and total number of nodules per plant was determined from the photocopies. Plant sections were oven dried at 65 C for 48 h, weighed, and ground to pass a 1-mm sieve. Total nitrogen was determined for shoots and root plus nodule dry matter with a Leco FP-228 Determinator (Leco Corporation, St Joseph, Mich.) by the Agriculture Services Laboratory, University of Arkansas. The experiment consisted of six replications and was repeated. Seed for Run 1 and Run 2 of the experiment were planted on 25 February and 14 April, respectively. […] Treatment means were compared using Fisher's Protected least significant difference (LSD, P≦0.05).

Wild type USDA 110 = assay: Growth in Tulley's media with 5 mM glyphosate, wild type (Example 7); assay type: cell-based, Bradyrhizobium japonicum
Experimental: Duplicate cultures were evaluated from each of the original colony selections. […] The cultures were allowed to grow for 14 days, and then the OD of each culture was measured.

[3] = system: soybean cultivar DK5961RR; assay: Greenhouse Example 3: response to glyphosate with and without available soil nitrogen; assay type: in vivo, soybean (Glycine max)
Experimental: Treatments were a factorial arrangement of two harvest dates, plus and minus soil nitrogen, and plus and minus glyphosate application. Experimental conditions were similar to those described for Examples 1 and 2, including timing of nutrient applications. […] Plants were harvested at 19 and 40 DAE as described previously. For the plus nitrogen treatment, plants harvested at 19 and 40 DAE received in the nutrient solution at total of 150 and 300 mg N as NO3^−1, respectively. The experiment was a randomized complete block with six replications and was repeated.

[4] = Harvest 1 (19 DAE), averaged across runs
[5] = TV5866RR, Harvest 1 (19 DAE), early treatment
[6] = TV5866RR, Harvest 1 (19 DAE), early treatment: foliar 1.68 kg ha^−1 at 5 and 12 DAE
[7] = DK5961RR, Harvest 1 (19 DAE), soil nitrogen no
[8] = DK5961RR, Harvest 1 (19 DAE), soil nitrogen yes
[9] = DK5961RR, Harvest 2 (40 DAE), averaged over soil nitrogen treatments

O=C(O)CNCP(=O)(O)O [glyphosate, N-(phosphonomethyl)glycine]
Nodule number [1]: progressively decreased
Number of nodules per plant vs untreated ([2]; Harvest 1 (19 DAE)): no difference
Nitrogen accumulation decrease in roots [2, 4]: 36%
Nitrogen accumulation decrease in shoots [2, 4]: 34%
Nodule mass effect ([2]; Harvest 1, Run 2, 19 DAE): not affected
Total nodule weight decrease ([2]; Harvest 1, Run 1): 34%
Nodules per plant Run 1 ([2]; Early treatment, Run 1): 138 number
Individual nodule mass Run 2 ([2]; Early treatment, Run 2): 1.70 mg nodule^−1
Nodules per plant Run 2 ([2]; Early treatment, Run 2): 256 number
Individual nodule mass Run 1 ([2]; Early: 1.68 kg ha^−1 on 5 and 12 DAE, Run 1): 2.73 mg nodule^−1
Nodules per plant Run 1 ([2]; Late treatment, Run 1): 150 number
Individual nodule mass Run 2 ([2]; Late treatment, Run 2): 2.00 mg nodule^−1
Nodules per plant Run 2 ([2]; Late treatment, Run 2): 209 number
Individual nodule mass Run 1 ([2]; Late: 1.68 kg ha^−1 on 18, 25, and 32 DAE, Run 1): 2.79 mg nodule^−1
Root biomass effect ([2]; TV5866RR, Harvest 1): not decreased
Shoot biomass decrease ([2]; TV5866RR, Harvest 1 (19 DAE)): 17%
Nitrogen Root [2, 5]: 4.2 mg plant^−1
Nitrogen Shoot [2, 5]: 8.9 mg plant^−1
Biomass Root [2, 6]: 0.17 g plant^−1
Biomass Shoot [2, 6]: 0.40 g plant^−1
Biomass Nodules Run 1 ([2]; TV5866RR, Harvest 1 (19 DAE), early treatment, Run 1): 0.043 g plant^−1
Biomass Nodules Run 2 ([2]; TV5866RR, Harvest 1 (19 DAE), early treatment, Run 2): 0.088 g plant^−1
Visual observation of plants ([2]; between 12 and 20 DAE): yellowed
Effect on plant mass, plant color, or plant N content ([2]; by 40 DAE in Run 2): no apparent effect
Growth, % of USDA 110 in the absence of glyphosate (Wild type USDA 110; 14 days): 33%
OD600 (Wild type USDA 110; USDA 110, after 14 days): 0.44 b^
Plant biomass or nitrogen content effect ([3]; DK5961RR, 19 DAE, without soil nitrogen): did not decrease
Biomass Root [3, 7]: 0.30b g plant^−1
Biomass Shoot [3, 7]: 0.63bc g plant^−1
Nitrogen Root [3, 7]: 7.53b mg plant^−1
Nitrogen Shoot [3, 7]: 22.2c mg plant^−1
Biomass Shoot [3, 8]: 0.58c g plant^−1
Nitrogen Root [3, 8]: 5.77c mg plant^−1
Nitrogen Shoot [3, 8]: 31.0b mg plant^−1
Biomass Root ([3]; DK5961RR, Harvest 1 (19 DAE), soil nitrogen yes, 1.68 kg ha^−1 5 and 12 DAE): 0.20c g plant^−1
Biomass Root [3, 9]: 0.48 g plant^−1
Biomass Shoot [3, 9]: 1.81 g plant^−1
Nitrogen Root [3, 9]: 11.1 mg plant^−1
Nitrogen Shoot [3, 9]: 70.7 mg plant^−1
Shoot nitrogen content decrease ([3]; Harvest 2 (40 DAE), averaged across soil nitrogen treatments): 13%
